Article PMC8470104, “Anti-Metatype Antibody Screening, Sandwich Immunoassay Development, and Structural Insights for β-Lactams Based on Penicillin Binding Protein” (Molecules, 2021)
pIC50: −log10 of the molar value.

What was measured:
PBP2x* = PBP2x* (Streptococcus pneumoniae, UniProt P14677); experiment: direct competitive ELISA, binding affinity of β-lactams to PBP2x*; settings: for pIC50: IC50 (affinity to PBP2x*)
From the text: The anti-metatype antibodies that recognize the complex formed by the receptor and ligand was developed by immunization. The success of the immunization depends on the stability of the receptor–drug complex. In the present study, we hypothesized that the complex formed by PBP2x* and β-lactams with high affinity to PBP2x* would achieve higher stability, because more non-covalent bonds typically tend to form between the two. In addition, the conformational change of PBP2x* induced by the combination of the β-lactams with high affinity may be greater due to the existence of more interaction forces, which stimulate the PBP2x* to some extent. Therefore, a direct competitive ELISA was carried out to determine the affinity of 18 β-lactams to PBP2x*. […] In the cephalosporin group, CPZ, CFN, CFZ, and CFM performed poorly: affinities with IC50 were greater than 10 ng/mL, which was almost 2–50-fold that of other drugs such as CTRX, CTX, and KF. (Table 2). Therefore, for the preparation of anti-metatype antibodies, five β-lactams (including PNG, AMP, AMX, CTX, and KF) with high affinity to PBP2x* were selected to form a complex with PBP2x*.
The PBP2x* (100 μL/well) was diluted to an appropriate concentration and coated on microtiter plates, and incubated overnight at 4 °C. After the solution was poured, the plates were washed 3 times with washing buffer and patted dry. Then, 150 μL of blocking solution was added to each well, followed by 1 h of incubation at 37 °C. The β-lactam standards (50 μL), which were diluted to a series of concentrations, were added into each well, then 50 μL of the enzyme marker prepared in our previous study was added, and incubated at 37 °C for 30 min. After the washing procedure, the color was developed by adding tetramethylbenzidine (TMB) substrate. Finally, 2 M H2SO4 (50 μL/well) was used to stop the enzymatic reaction, and the optical density (OD) values of 450 nm was measured.

[1] = system: PBP2x*-β-lactam complexes; experiment: sandwich immunoassay of 18 PBP2x*-β-lactam complexes (capture mAb 4H11, detection pAb #5); assay type: binding; settings: 1000 ng/mL; mAb 4H11 capture, pAb #5 detection; n = 3; S/N > 1 positive detection
Experimental: Microtiter plates were coated with 100 μL anti-mouse IgG antibody in CB buffer and incubated at 4 °C overnight. The plates were subsequently washed and blocked with 150 μL of 2% skim milk. Then, 100 μL of diluted mAb was added to the wells and incubated for 1 h at 37 °C. After washing, 100 μL individual PBP2x* or receptor–ligand complexes of 18 β-lactams with PBP2x* that were diluted to 1 μg/mL was added. The incubation was carried out at 37 °C for 1 h, followed by another washing procedure. Then, 100 μL diluted HRP-labeled pAb was added to the wells and incubated for 1 h at 37 °C. The TMB substrate solution was added after washing, followed by the addition of 2 M H2SO4 to stop the reaction, and finally the OD values were measured at 450 nm.

[2] = PBP2x* coated, enzyme marker competitor

Chain of PBP2x* (P14677 49-750): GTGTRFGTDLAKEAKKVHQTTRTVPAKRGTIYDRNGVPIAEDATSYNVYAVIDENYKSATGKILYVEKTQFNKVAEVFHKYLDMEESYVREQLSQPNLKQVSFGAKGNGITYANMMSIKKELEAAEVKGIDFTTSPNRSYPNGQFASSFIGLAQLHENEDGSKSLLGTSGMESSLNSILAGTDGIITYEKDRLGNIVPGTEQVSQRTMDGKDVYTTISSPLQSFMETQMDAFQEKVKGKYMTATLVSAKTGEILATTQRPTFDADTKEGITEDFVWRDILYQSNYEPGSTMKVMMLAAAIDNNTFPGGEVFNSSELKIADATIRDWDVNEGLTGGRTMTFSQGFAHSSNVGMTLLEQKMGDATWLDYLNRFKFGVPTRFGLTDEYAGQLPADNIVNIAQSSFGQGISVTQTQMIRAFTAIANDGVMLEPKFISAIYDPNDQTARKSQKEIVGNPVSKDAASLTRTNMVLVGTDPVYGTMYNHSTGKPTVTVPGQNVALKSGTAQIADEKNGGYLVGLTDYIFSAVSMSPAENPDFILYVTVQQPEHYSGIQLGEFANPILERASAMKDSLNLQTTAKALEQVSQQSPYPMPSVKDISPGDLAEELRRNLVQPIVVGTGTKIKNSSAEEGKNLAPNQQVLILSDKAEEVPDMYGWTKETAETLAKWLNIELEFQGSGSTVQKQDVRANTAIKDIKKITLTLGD

Compound | pIC50 (PBP2x*; [2]) | affinity to PBP2x* (in words) (PBP2x*) | IC50 (affinity to PBP2x*) (PBP2x*; [2]) [ng/mL] | Signal-to-noise ratio (S/N) of the sandwich immunoassay [1]
CO/N=C(\C(=O)N[C@@H]1C(=O)N2C(C(=O)O)=C(CSc3nc(=O)c(=O)[nH]n3C)CS[C@H]12)c1csc(N)n1 [CTRX, Cefatriaxone] | 8.37 | – | – | –
Cc1onc(-c2ccccc2Cl)c1C(=O)N[C@@H]1C(=O)N2[C@@H]1SC(C)(C)[C@@H]2C(=O)O [CLX, Cloxacillin] | 6.76 | relatively poor affinity | – | –
NC(=O)c1cc[n+](CC2=C(C(=O)[O-])N3C(=O)[C@@H](NC(=O)Cc4cccs4)[C@H]3SC2)cc1 [CFN, Cefalonium] | 7.48 | – | – | –
CC(=O)OCC1=C(C(=O)O)N2C(=O)[C@@H](NC(=O)Cc3cccs3)[C@H]2SC1 [KF, Cefalothin] | – | high affinity | 7.89 | < 1
CCN1CCN(C(=O)N[C@@H](C(=O)N[C@@H]2C(=O)N3[C@@H]2SC(C)(C)[C@@H]3C(=O)O)c2ccccc2)C(=O)C1=O [PIPC, Piperacillin] | 7.82 | high affinity | – | –
CC1(C)S[C@@H]2[C@H](NC(=O)[C@H](NC(=O)N3CCNC3=O)c3ccccc3)C(=O)N2[C@H]1C(=O)O [AZL, Azlocillin] | 7.84 | high affinity | – | –
CC1(C)S[C@@H]2[C@H](NC(=O)[C@H](N)c3ccccc3)C(=O)N2[C@H]1C(=O)O [AMP, Ampicillin] | 7.65 | high affinity | – | < 1
CO/N=C(\C(=O)N[C@@H]1C(=O)N2C(C(=O)O)=C(COC(C)=O)CS[C@H]12)c1csc(N)n1 [CTX, Cefotaxime] | 7.98 | high affinity | – | –
Cc1onc(-c2ccccc2)c1C(=O)N[C@@H]1C(=O)N2[C@@H]1SC(C)(C)[C@@H]2C(=O)O [OXA, Oxacillin] | 7.60 | relatively poor affinity | – | –
CO/N=C(\C(=O)N[C@@H]1C(=O)N2C(C(=O)[O-])=C(C[N+]3(C)CCCC3)CS[C@H]12)c1csc(N)n1 [CFP, Cefepime] | 7.82 | – | – | –
CC1(C)S[C@@H]2[C@H](NC(=O)Cc3ccccc3)C(=O)N2[C@H]1C(=O)O [PNG, Penicillin G] | 7.97 | high affinity | – | < 1
Cc1onc(-c2c(Cl)cccc2Cl)c1C(=O)N[C@@H]1C(=O)N2[C@@H]1SC(C)(C)[C@@H]2C(=O)O [DCX, Dicloxacillin] | 7.49 | relatively poor affinity | – | –
CC1(C)S[C@@H]2[C@H](NC(=O)[C@H](N)c3ccc(O)cc3)C(=O)N2[C@H]1C(=O)O [AMX, Amoxicillin] | 7.73 | high affinity | – | < 1
CC(=O)OCC1=C(C(=O)O)N2C(=O)[C@@H](NC(=O)CSc3ccncc3)[C@H]2SC1 [CFAP, Cefapirin] | 7.85 | – | – | –
CCN1CCN(C(=O)N[C@@H](C(=O)N[C@@H]2C(=O)N3C(C(=O)O)=C(CSc4nnnn4C)CS[C@H]23)c2ccc(O)cc2)C(=O)C1=O [CPZ, Cefoperazone] | 6.81 | – | – | –
C=CC1=C(C(=O)O)N2C(=O)[C@@H](NC(=O)/C(=N\OCC(=O)O)c3csc(N)n3)[C@H]2SC1 [CFM, Cefixime] | 7.19 | – | – | –
Cc1nnc(SCC2=C(C(=O)O)N3C(=O)[C@@H](NC(=O)Cn4cnnn4)[C@H]3SC2)s1 [CFZ, Cefazolin] | 7.27 | – | – | –
CO/N=C(\C(=O)N[C@@H]1C(=O)N2C(C(=O)O)=C(CSC(=O)c3ccco3)CS[C@H]12)c1csc(N)n1 [CFT, Ceftiofur] | 8.30 | – | – | –
